Experimental data from patent US20170165295A1, “COMPOSITION FOR PREVENTING, ALLEVIATING OR TREATING CONSTIPATION, CONTAINING HIGH HARDNESS MINERAL WATER PREPARED FROM DEEP OCEAN WATER OR DESALINATED GROUNDWATER” (ARIBIO INC., priority 2012, published 2017).
Structures can show the parent of a compound that is named as a salt. Marks after values point to notes of the source that are not given here.

Assays:
[1] = test system: loperamide-induced constipated rats; assay: Histomorphometry of the colon and remnant fecal pellets in loperamide-induced constipated rats; type: in vivo; conditions: for Colon mucosa thicknesses / Fecal pellet surface mucous thickness / Mucous producing cell numbers: at sacrifice, 6 days of administration, mean ± S.D. of nine rats; for Mucous producing cell numbers: colonic mucosa
Experimental: (§1) 6-week-old rats (SLC, Japan) were used for an experiment after acclimatization to new environments for 7 days. Five rats were raised per cage at 20-25° C. and 45-50% humidity. The light-dark cycle was 12 hr: 12 hr, and water and food were freely available. The rats were classified into six groups (nine rats per group, a total of 54 rats) based on the body weight thereof. Specific groups are as follows:
(§2) Administration of Test Material Magnesium hydroxide (Mg(OH)2; MagMill™) was purchased from Samnam Pharm. In order to protect test materials from light and moisture, the test materials were stored in a refrigerator at 4° C. The mineral water was orally administered at 10 ml/kg for each time, at an interval of 6 hours (30 ml/kg/day), three times a day, for a total of six days. The administration for each time was conducted 1 hour after administration of loperamide 3 mg/kg. Magnesium hydroxide was mixed with distilled water, and the mixture was orally administered once a day for a total of six days, and the same amount of distilled water was orally administered at the time of second and third administrations. Distilled water, instead of mineral water, was administered to groups 1 and 2.
(§3) In order to induce constipation, loperamide hydrochloride (Sigma, MO, U.S.) 3 mg/kg was mixed with saline water 5 ml/kg, and the mixture was orally administered to animals 1 hour before administration of the test material, once a day, for a total of six days. Detailed methods are disclosed in Bustos et al. Acta Gastroenterol Latinoam, 1991; 21:3-9 and Wintola et al. BMC Gastroenterol, 2010; 10:95, which are incorporated by reference into the present specification.
Histopathological assessment of the colonic mucosa and remnant fecal pellets in the colonic lumen was conducted by the method of Wu et al. J Ethnopharmacol, 2011; 134:406-13, with minor modification. In short, the distal colon fragment containing one fecal pellet was isolated using ligatures, removed, and immediately fixed with 10% formaldehyde (when the gastrointestinal charcoal transit ratio was measured). The fixed tissue segments were paraffin-embedded, and sliced into 3 μm-thickness cross sections. The sliced samples were stained with Alcian blue at pH 2.5. Five tissue segments per group were prepared, and histological profiles thereof were interpreted. The histopathologist was blinded to the group distributions at the time of analysis.
Histomorphometry: The mean thickness of the mucosal layers at the fecal surface (μm/fecal pellet), mucous-producing cell number (cells/mm^2) per unit area in the colonic mucosa, and the colonic mucosal thickness (μm/colon) were measured by using an automated image analyzer (DMI-300, DMI, Korea) under a light microscope.
(§4) Multiple comparison tests of the groups with different dosages were conducted. Variance homogeneity was examined using the Levene test (Levene A, Clin Otalary, 1981; 6:145-51). […] In cases where significant deviations from variance homogeneity were observed by the Levene test, the non-parametric comparison test and Kruskal-Wallis H test were conducted. When a significant difference was observed by the Kruskal-Wallis H test, the Mann-Whitney U (MW) test was used to determine the significance of specific pairwise comparisons. Statistical analyses were conducted using SPSS (Release 14K, SPSS Inc. USA; Ludbrook, Clin Exp Pharmacol Physiol, 1997; 24:294-6). In addition, the percentage change between the normal group and loperamide control was calculated to identify the severity of induced constipation, and then, in order to evaluate the efficacy of the test materials, the percent change compared with the loperamide control was calculated by equations 4 and 5.
(§5) Percent change compared with normal group (%)=(((normal group data)−(loperamide control data)/normal group data)×100) [Equation 4]

[2] = test system: loperamide-induced constipated rats; assay: Gastrointestinal charcoal transit ratio in loperamide-induced constipated rats; type: in vivo; conditions: for Gastrointestinal charcoal transit ratio / Length of charcoal meal transferred: during 30 min after charcoal meal, after 6th administration, mean ± S.D. of nine rats
Experimental: as §1, §2, §3
The gastrointestinal propulsion of the charcoal meal was checked by the method disclosed in Sagar et al. BMC Complement Altern Med, 2005; 5:18, with minor modification. Prior to the experiment, animals were fasted for 18 hours (water supplied). Ten minutes after the 6th administration (last) of the test material, animals of each group were fed with 1 ml of charcoal meal (3% suspension of activated charcoal in 0.5% aqueous methylcellulose). Thirty minutes after charcoal meal ingestion, the animals of each group were sacrificed, and the total small intestine length (from pyloric sphincter to appendix) and the charcoal meal transit distance were measured. The gastrointestinal charcoal transit ratio was calculated by equation 3 below:
Charcoal transit ratio (%)=(([…])/total small intestine length)×100 [Equation 3]
as §4, §5
(§6) Percentage change (%) compared with loperamide control=(((loperamide control data−test material administered rat data)/(loperamide control data))×100) [Equation 5]

[3] = test system: loperamide-induced constipated rats; assay: Remnant fecal pellets in the colon of loperamide-induced constipated rats; type: in vivo
Experimental: as §1, §2, §3
The total number and mean thickness (short axis) of remnant fecal pellets in the colonic lumen were measured when the gastrointestinal charcoal transit ratio was measured.
as §4, §5, §6

[4] = Body weight change of loperamide-induced constipated rats
Experimental: as §1, §2, §3
Body weight was measured once per day 1 day before the test material administration, at the day of the initiation of administration, and 1, 2, 3, 4, and 5 days after the initiation of administration, to verify the body weight change according to administration of the test material. All the animals were fasted (excluding water) for 5 days after the initiation of administration for one overnight in order to decrease the body weight difference due to feed ingestion and measure the intestinal charcoal transit ratio. In addition, the body weight gain was calculated by equation 1.
Body weight gain (g)=body weight at 6th administration last day−body weight at the day of the initiation of administration. [Equation 1]

[5] = test system: loperamide-induced constipated rats; assay: Fecal parameters in loperamide-induced constipated rats; type: in vivo; conditions: for Fecal dry-weights / Fecal wet-weights / Numbers of fecal pellets / Water contents of fecal pellets: collected at 4th administration day (24 hrs), mean ± S.D. of nine rats
Experimental: as §1, §2, §3
The fecal pellets of each rat were collected 24 hours after the 4th administration day. The total number, wet weight, and water content of the fecal pellets were checked. The water content was calculated by equation 2 below:
Water content of fecal pellets (%)=((wet weight of fecal pellets−dry weight of fecal pellets)/wet weight of fecal pellets)×100 [Equation 2]
as §4, §5, §6

[6] = loperamide control 3 mg/kg, percent change compared with the normal group
[7] = at sacrifice after 6th administration, 18 h fasting, mean ± S.D. of nine rats
[8] = percent change compared with the loperamide control

Question: For `CN(C)C(=O)C(CCN1CCC(O)(c2ccc(Cl)cc2)CC1)(c1ccccc1)c1ccccc1` [Loperamide, loperamide hydrochloride], which Colon mucosa thicknesses [1] is on record?
Answer: The Colon mucosa thicknesses was 104.38 ± 10.79^c μm.

Question: And the “Fecal pellet surface mucous thickness” value [1]?
Answer: Its value is 5.84 ± 2.53^a μm.

Question: What about the “Mucous producing cell numbers” value [1] of the same compound?
Answer: Its value is 179.00 ± 46.31^c cells/mm^2.

Question: What about the “change in colon mucosa thickness” value [1, 6] of the same compound?
Answer: Its value is −70.97%.

Question: What about the “change in fecal pellet surface mucosal thickness in the colon” value [1, 6] of the same compound?
Answer: The value was −89.93%.

Question: And the “change in mucous-producing cell number per unit area in the colonic mucosa” value [1, 6]?
Answer: The value was −72.40%.

Question: What about the “Gastrointestinal charcoal transit ratio” value [2] of the same compound?
Answer: The value was 61.20 ± 5.98^a %.

Question: And the “Length of charcoal meal transferred” value [2]?
Answer: Its value is 74.21 ± 6.41^a cm.

Question: What about the “change in intestinal charcoal transit ratio” value [2, 6] of the same compound?
Answer: The value was −20.05%.

Question: And the “Remnant fecal pellets in the colon: Numbers” value [3, 7]?
Answer: The value was 3.89 ± 1.05^a.

Question: And the “change in mean diameter of remnant fecal pellets in the colon” value [3, 6]?
Answer: Its value is 57.96%.

Question: What about the “change in number of remnant fecal pellets in the colon” value [3, 6] of the same compound?
Answer: Its value is 118.75%.

Question: And the “significant changes in body weight and weight gain” value ([4]; compared with the normal group and loperamide control)?
Answer: The value was “not observed”.

Question: And the “change in weight gain during the administration period” value ([4]; loperamide control 3 mg/kg, percent change compared with normal group)?
Answer: Its value is −7.92%.

Question: What about the Fecal dry-weights [5] of the same compound?
Answer: Its Fecal dry-weights is 4.17 ± 0.63^a g/24 hr/rat.

Question: And the Fecal wet-weights [5]?
Answer: The Fecal wet-weights was 7.65 ± 1.25^d g/24 hr/rat.

Question: And the “Numbers of fecal pellets” value [5]?
Answer: The value was 45.22 ± 4.97^d.

Question: What about the “Water contents of fecal pellets” value [5] of the same compound?
Answer: Its value is 45.29 ± 4.06^a %.

Question: What about the “change in number of fecal pellets for 24 hours, 4 days after administration” value [5, 6] of the same compound?
Answer: Its value is −27.45%.

Question: What about the “change in water content in fecal pellets for 24 hours, 4 days after administration” value [5, 6] of the same compound?
Answer: The value was −17.47%.

Question: With `[Mg+2].[OH-].[OH-]` [Mg(OH)2, Magnesium hydroxide] as the compound, how does the Colon mucosa thicknesses [1] read?
Answer: Its Colon mucosa thicknesses is 164.16 ± 22.31^cd μm.

Question: What about the “Fecal pellet surface mucous thickness” value [1] of the same compound?
Answer: The value was 24.33 ± 7.82^ab μm.

Question: What about the “Mucous producing cell numbers” value [1] of the same compound?
Answer: The value was 313.56 ± 42.27^cd cells/mm^2.

Question: What about the “change in colon mucosa thickness” value [1, 8] of the same compound?
Answer: Its value is 57.27%.

Question: And the “change in fecal pellet surface mucosal thickness in the colon” value [1, 8]?
Answer: The value was 316.22%.

Question: And the “change in mucous-producing cell number per unit area in the colonic mucosa” value [1, 8]?
Answer: Its value is 75.17%.

Question: What about the “Gastrointestinal charcoal transit ratio” value [2] of the same compound?
Answer: The value was 66.76 ± 3.47^ac %.

Question: And the “Length of charcoal meal transferred” value [2]?
Answer: The value was 83.33 ± 6.06^a cm.

Question: What about the “change in intestinal charcoal transit ratio” value [2, 8] of the same compound?
Answer: Its value is 9.10%.

Question: And the “Remnant fecal pellets in the colon: Numbers” value [3, 7]?
Answer: The value was 1.89 ± 0.93^c.

Question: What about the “change in mean diameter of remnant fecal pellets in the colon” value [3, 8] of the same compound?
Answer: Its value is −18.76%.

Question: What about the “change in number of remnant fecal pellets in the colon” value [3, 8] of the same compound?
Answer: Its value is −51.43%.

Question: What about the “Remnant fecal pellets in the colon: Mean thicknesses” value ([3]; short axis, at sacrifice after 6th administration, 18 h fasting, mean ± S.D. of nine rats) of the same compound?
Answer: The value was 5.26 ± 0.38^c μm.

Question: What about the “Body weights at Last (6th) administration [B]” value ([4]; after overnight fasting, loperamide 3 mg/kg, Mg(OH)2 200 mg/kg/day or mineral water 30 ml/kg/day oral, mean ± S.D. of nine rats) of the same compound?
Answer: Its value is 241.67 ± 10.36 g.

Question: And the “Body weight gains [B − A]” value ([4]; last (6th) administration minus initiation of administration, mean ± S.D. of nine rats)?
Answer: The value was 22.44 ± 4.19 g.

Question: What about the “change in weight gain during the administration period” value [4, 8] of the same compound?
Answer: Its value is 8.60%.

Question: What about the “Body weights at Initiation of administration [A]” value ([4]; rats given loperamide 3 mg/kg, Mg(OH)2 200 mg/kg/day or mineral water 30 ml/kg/day oral, 6 days, mean ± S.D. of nine rats) of the same compound?
Answer: Its value is 219.22 ± 8.79 g.

Question: What about the “Body weights at Fifth administration” value ([4]; rats given loperamide 3 mg/kg, Mg(OH)2 200 mg/kg/day or mineral water 30 ml/kg/day oral, mean ± S.D. of nine rats) of the same compound?
Answer: Its value is 260.33 ± 12.38 g.

Question: What about the Fecal dry-weights [5] of the same compound?
Answer: The Fecal dry-weights was 4.21 ± 0.55^a g/24 hr/rat.

Question: What about the Fecal wet-weights [5] of the same compound?
Answer: The Fecal wet-weights was 9.18 ± 0.88^dg g/24 hr/rat.

Question: What about the “Numbers of fecal pellets” value [5] of the same compound?
Answer: The value was 52.33 ± 4.21^ef.

Question: And the “Water contents of fecal pellets” value [5]?
Answer: Its value is 53.50 ± 9.99^c %.

Question: What about the “change in number of fecal pellets for 24 hours, 4 days after administration” value [5, 8] of the same compound?
Answer: The value was 17.94%.

Question: What about the “change in water content in fecal pellets for 24 hours, 4 days after administration” value [5, 8] of the same compound?
Answer: Its value is 18.12%.
